Experimental data taken from PMC6667281 (Biochemistry, 2019).

What was measured:
CymD [1] = molecular target: T1, CymD (Salinispora arenicola, UniProt A8M6W6); experiment: prenyl donor in coupled pyrophosphate-release assay with purified CymD; assay type: biochemical
CymD [2] = molecular target: T1, CymD; experiment: ITC; assay type: binding

T1 sequence (A8M6W6 2-373): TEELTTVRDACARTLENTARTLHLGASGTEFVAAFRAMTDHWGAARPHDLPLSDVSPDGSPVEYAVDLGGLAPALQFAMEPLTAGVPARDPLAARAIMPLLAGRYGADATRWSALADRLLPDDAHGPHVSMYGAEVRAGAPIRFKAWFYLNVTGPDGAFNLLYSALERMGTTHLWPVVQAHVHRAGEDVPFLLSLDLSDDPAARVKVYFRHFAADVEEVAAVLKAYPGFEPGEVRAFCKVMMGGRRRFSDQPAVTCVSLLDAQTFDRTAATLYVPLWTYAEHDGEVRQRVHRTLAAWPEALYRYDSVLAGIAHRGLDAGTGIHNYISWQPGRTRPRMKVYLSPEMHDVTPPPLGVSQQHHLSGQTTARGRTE

| Structure (SMILES) | prenyl donor in coupled pyrophosphate-release assay with purified CymD (CymD [1]) | Kd (CymD [2]) |
| --- | --- | --- |
| CC(C)=CCOP(=O)(O)OP(=O)(O)O [DMAPP] | Specific activities of CymD with DMAPP and various prenyl acceptor substrates. | – |
| N[C@@H](Cc1c[nH]c2ccccc12)C(=O)O [L-Trp] | – | 4.4 ± 0.4 µM |
